# Entries after “also recorded” stand apart in the source; their conditions may differ.
# Columns and labels:
# Assay type in all cases: in vivo
# [1] = tested on: strawberry fruit; test: CAD analogs: ability to hasten strawberry fruit ripening; details: 50 μM in 0.1% TRITON-X 100, applied at the same timing as CAD; compared with CAD
# Protocol: Chemicals with similarity to CAD were tested for their ability to hasten fruit ripening.
# To the inventors' knowledge, no chemical closely related to CAD is currently commercially available. A few analogs with 88-90% similarity to CAD were found in the ChemBridge database used in Example 1.
# This compound has 90% similarity to CAD.
# [2] = tested on: Strawberry seeds (Fragaria x ananassa CV. Albion); test: Chemical library screening for delaying strawberry seed germination; details: about 5 μM chemical in 0.1% TRITON X-100; strawberry seeds in 96 well plates, 25° C., vs non-treated or mock-treated seeds
# Protocol: A chemical library containing 10,000 small compounds (˜300 Dalton) was purchased from ChemBridge Co (San Diego, California, USA). Strawberry seeds (Fragaria x ananassa CV. Albion) were purchased from Johnny's Seeds (Fairfield, Maine, USA). Five to six seeds were sterilized with 70% ethanol and added to each well of 96 well ELISA plates containing about 5 μM chemical 0.1% TRITON X-100 surfactant (polyethylene glycol tert-octylphenyl ether). One mM abscisic acid (ABA), a hormone that inhibits seed germination, and gibberellic acid (GA3), a hormone that promotes seed germination, were used as controls. Each experiment was conducted in triplicate. Plates were kept in a growth chamber at 25° C. under dark, and a 14 hour light/10 hour dark cycle was added after seed germination was observed.
# [3] = tested on: Strawberry fruit (Fragaria x ananassa CV. Albion); test: Treatment of strawberry fruit by dipping: fruit ripening; details: for strawberry fruit ripening compared to mock-treated strawberries: 10 μM CAD or 1 mM ABA in 0.1% TRITON X-100, dipped 20 seconds eight days after pollination; for strawberry appearance (colour), FIG. 2A: 7 DAT; for strawberry appearance (colour), FIG. 2A / strawberry appearance (colour), FIG. 2B / strawberry appearance (colour), FIG. 2C / strawberry appearance (colour), FIG. 2D / strawberry appearance (colour), FIG. 2E / strawberry appearance (colour), FIG. 2F: 8 day old fruit, 10 μM CAD or 1 mM ABA in 0.1% TRITON-X100; for strawberry appearance (colour), FIG. 2B: 8 DAT; for strawberry appearance (colour), FIG. 2C: 9 DAT; for strawberry appearance (colour), FIG. 2D: 10 DAT; for strawberry appearance (colour), FIG. 2E: 11 DAT; for strawberry appearance (colour), FIG. 2F: 12 DAT
# Protocol: Strawberry plants (Fragaria x ananassa CV. Albion) were grown in a greenhouse at 28° C. and 14-hour light/10-hour dark conditions. […] Fruits were allowed to continue growing on the plants. FIG. 1 depicts images of strawberry fruit development under standard conditions.
# FIG. 2A to FIG. 2F depict images of strawberries treated with either 10 μM CAD in 0.1% TRITON X-100 surfactant; 1 mM ABA in 0.1% TRITON X-100 surfactant; or buffer (0.1% TRITON X-100 surfactant) without chemical (mock-treated). […] The CAD dosage was lower than that of ABA (10 μM vs. 1 mM), and CAD stimulated fruit ripening faster than did ABA. […] In contrast, ABA-treated fruit started to turn red 9 DAT, and reached full red 11 DAT.
# [4] = tested on: strawberries on the plant; test: Effect of CAD injection on strawberry fruit ripening; details: for strawberry appearance (colour), FIG. 4A: 8 DAT; for strawberry appearance (colour), FIG. 4A / strawberry appearance (colour), FIG. 4B / strawberry appearance (colour), FIG. 4C / strawberry appearance (colour), FIG. 4D / strawberry appearance (colour), FIG. 4E / strawberry appearance (colour), FIG. 4F: 7 day old fruit, 10 μM CAD or 200 μM ABA in 0.1% TRITON-X100, injected; for strawberry appearance (colour), FIG. 4B: 9 DAT; for strawberry appearance (colour), FIG. 4C: 10 DAT; for strawberry appearance (colour), FIG. 4D: 11 DAT; for strawberry appearance (colour), FIG. 4E: 12 DAT; for strawberry appearance (colour), FIG. 4F: 13 DAT
# Protocol: While still on the plant, strawberries were injected with either 10 μM CAD in 0.1% TRITON-X 100 surfactant; 200 μM ABA in 0.1% TRITON-X 100 surfactant; or 0.1% TRITON-X 100 surfactant. The strawberries were allowed to remain on the plant, and removed and photographed at 8 DAT, 9 DAT, 10 DAT, 11 DAT, 12 DAT, and 13 DAT. FIG. 4A to FIG. 4F depict images of strawberries treated with either 10 μM CAD in 0.1% TRITON-X 100 surfactant; 200 μM ABA in 0.1% TRITON-X 100 surfactant; or 0.1% TRITON-X 100 surfactant alone (mock); or no treatment.
# [5] = tested on: Cherry tomato fruits at mature green stage; test: Treatment of cherry tomatoes by injection: fruit ripening; details: for cherry tomato appearance (colour), FIG. 3B / FIG. 3D: 6 DAT, injected with 10 μM CAD or 200 μM ABA in 0.1% TRITON-X100; for cherry tomato ripening stage: six days after treatment, injected with 50 μM CAD or 200 μM ABA in 0.1% TRITON X-100
# Protocol: Cherry tomato fruits at mature green stage were purchased from Butler's Orchard (Germantown, Maryland, USA). Each fruit was injected with either 50 μM CAD in 0.1% TRITON X-100 surfactant; 200 μM ABA in 0.1% TRITON X-100 surfactant; or buffer alone (0.1% TRITON X-100 surfactant). […] FIG. 3A and FIG. 3B show images of cherry tomatoes injected with 10 μM CAD. FIG. 3C and FIG. 3D show images of cherry tomatoes injected with 200 μM ABA. FIG. 3E and FIG. 3F show images of cherry tomatoes injected with buffer alone. FIG. 3G and FIG. 3H show images of untreated tomatoes. FIG. 3A; FIG. 3C; FIG. 3E; and FIG. 3G show images taken the day of treatment. FIG. 3B; FIG. 3D; […]; and FIG. 3H show images taken 6 DAT.
# [6] = 10 μM CAD or 1 mM ABA in 0.1% TRITON X-100, dipped eight days after pollination, days after treatment
SMILES,effect on strawberry fruit ripening [1],strawberry fruit ripening compared to mock-treated strawberries [3],"fruit reached full red [3, 6]","strawberry appearance (colour), FIG. 2A [3]","strawberry appearance (colour), FIG. 2B [3]","strawberry appearance (colour), FIG. 2C [3]","strawberry appearance (colour), FIG. 2D [3]","strawberry appearance (colour), FIG. 2E [3]","strawberry appearance (colour), FIG. 2F [3]","strawberry appearance (colour), FIG. 4A [4]","strawberry appearance (colour), FIG. 4B [4]","strawberry appearance (colour), FIG. 4C [4]","strawberry appearance (colour), FIG. 4D [4]","strawberry appearance (colour), FIG. 4E [4]","strawberry appearance (colour), FIG. 4F [4]","cherry tomato appearance (colour), FIG. 3B / FIG. 3D [5]",cherry tomato ripening stage [5],also measured
CCn1ccc(C(=O)Nc2ccc(Br)cc2)n1 [N-(4-bromophenyl)-1-ethyl-1H-pyrazole-3-carboxamide],"has an effect on fruit ripening; also recorded: promoted strawberry fruit ripening, although not as effectively as CAD",,,,,,,,,,,,,,,,,
CCn1cc(Br)c(C(=O)Nc2ccccc2C(C)(C)C)n1 [4-bromo-N-(2-tert-butylphenyl)-1-ethyl-1H-pyrazole-3-carboxamide],a lower effect on fruit ripening than CAD,,,,,,,,,,,,,,,,,
"CCc1cc(Br)ccc1NC(=O)c1ccn(CC)n1 [CAD, N-(4-bromo-2-ethylphenyl)-1-ethyl-1H-pyrazole-3-carboxamide]",,stimulated strawberry fruit ripening,9 DAT,white have a pink tint,with pink spots,mostly red,red,red allover,red allover,with a pink tint,mostly light red; also recorded: showed some color,red and ripe,red,bright red,red allover,dark red,fully ripen (red stage),delaying seed germination [2]: can delay seed germination; ripened before strawberries injected with 200 μM ABA ([4]; strawberries injected with 10 μM CAD in TRITON-X100 14 days after pollination): at least two; cherry tomato ripening compared to mock-treated or untreated cherry tomatoes ([5]; CAD injected in 0.1% TRITON X-100): hastening of cherry tomato ripening; also recorded: promoted fruit ripening of climacteric tomatoes
"CC1=CC(=O)CC(C)(C)[C@@]1(O)/C=C/C(C)=C\C(=O)O [ABA, abscisic acid, reference compound]",,stimulated strawberry fruit ripening,11 DAT,white with a greenish tint,white,with more pink,reddish,mostly red,red allover,white or greenish white,with some pink,pink/red,reddish,red,red with some white at the top,red,fully ripen (red stage),"fruit began/started to turn red (start of ripening) [3, 6]: 9 DAT"
CCc1cccc(C)c1NC(=O)c1ccn(CC)n1 [1-ethyl-N-(2-ethyl-6-methylphenyl)-1H pyrazole-3-carboxamide],no obvious effect on fruit ripening,,,,,,,,,,,,,,,,,

# From patent US12582132B2, “Germination/sprouting and fruit ripening regulators” (The United States of America, as represented by the …, priority 2021, dated 2026)
